Measurements from PubChem BioAssay AID2060609 (Molecular Pharmacology Branch, DTP, NCI, 2025).
Where “and” joins values, the source holds several entries; their conditions need not be identical. Identical values can stand only once.

Test system: 855422-203-R-J1-PDC complex spheroids, viability
Assay: Anticancer human tumor 855422-203-R-J1-PDC patient-derived bladder carcinoma cell line growth inhibition [CLK]
Conditions: for viability, T/C: stronger effect = lower value
In short: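 Multi-cell-type spheroids combined patient-derived tumor cells with HUVEC endothelial cells and human mesenchymal stem cells. Paired agents were dosed in half-log steps down from about clinical Cmax, or from 10 microM where Cmax was unknown.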
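Further: spheroids exposed to drugs for seven days before readout.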
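Wherever viability, T/C is given: 100% = DMSO vehicle control wells.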

## CCN1CCN(Cc2ccc(Nc3ncc(F)c(-c4cc(F)c5nc(C)n(C(C)C)c5c4)n3)nc2)CC1 + CN1CCN(c2cc(C(=O)Nc3cc4cc(-c5cnn(C)c5)ccc4cn3)ccn2)CC1
Curve of first compound, second compound 0.0316 µM
  IC50: 262 nM
Curve of first compound, second compound 0.1 µM
  IC50: 158 nM
Curve of first compound, second compound 0.316 µM
  IC50: < 3.16 nM
Curve of first compound, second compound 1 µM
  IC50: < 3.16 nM
Curve of first compound, second compound 3.16 µM
  IC50: < 3.16 nM
Curve of first compound, second compound 10 µM
  IC50: < 3.16 nM
Second compound 0.0316 µM, first compound 0.00316 µM
  viability, T/C: 82.8%
Second compound 0.0316 µM, first compound 0.01 µM
  viability, T/C: 97.1%
Second compound 0.0316 µM, first compound 0.0316 µM
  viability, T/C: 87.7%
Second compound 0.0316 µM, first compound 0.1 µM
  viability, T/C: 56.2%
Second compound 0.0316 µM, first compound 0.316 µM
  viability, T/C: 54.6%
Second compound 0.0316 µM, first compound 1 µM
  viability, T/C: 42.9%
Second compound 0.1 µM, first compound 0.00316 µM
  viability, T/C: 66.3%
Second compound 0.1 µM, first compound 0.01 µM
  viability, T/C: 72.4%
Second compound 0.1 µM, first compound 0.0316 µM
  viability, T/C: 76.2%
Second compound 0.1 µM, first compound 0.1 µM
  viability, T/C: 59.9%
Second compound 0.1 µM, first compound 0.316 µM
  viability, T/C: 34.8%
Second compound 0.1 µM, first compound 1 µM
  viability, T/C: 30.4%
Second compound 0.316 µM, first compound 0.00316 µM
  viability, T/C: 7.42%
Second compound 0.316 µM, first compound 0.01 µM
  viability, T/C: 10.2%
Second compound 0.316 µM, first compound 0.0316 µM
  viability, T/C: 14.1%
Second compound 0.316 µM, first compound 0.1 µM
  viability, T/C: 13.1%
Second compound 0.316 µM, first compound 0.316 µM
  viability, T/C: 18%
Second compound 0.316 µM, first compound 1 µM
  viability, T/C: 14.3%
Second compound 1 µM, first compound 0.00316 µM
  viability, T/C: 0.35%
Second compound 1 µM, first compound 0.01 µM
  viability, T/C: 0.82%
Second compound 1 µM, first compound 0.0316 µM
  viability, T/C: 1.18%
Second compound 1 µM, first compound 0.1 µM
  viability, T/C: 0.5%
Second compound 1 µM, first compound 0.316 µM
  viability, T/C: 0.97%
Second compound 1 µM, first compound 1 µM
  viability, T/C: 1.71%
Second compound 3.16 µM, first compound 0.00316 µM
  viability, T/C: 0.55%
Second compound 3.16 µM, first compound 0.01 µM
  viability, T/C: 1.57%
Second compound 3.16 µM, first compound 0.0316 µM
  viability, T/C: 0.95%
Second compound 3.16 µM, first compound 0.1 µM
  viability, T/C: 0.83%
Second compound 3.16 µM, first compound 0.316 µM
  viability, T/C: 2.86%
Second compound 3.16 µM, first compound 1 µM
  viability, T/C: 2.68%
Second compound 10 µM, first compound 0.00316 µM
  viability, T/C: 0.5%
Second compound 10 µM, first compound 0.01 µM
  viability, T/C: 0.53%
Second compound 10 µM, first compound 0.0316 µM
  viability, T/C: 0.3%
Second compound 10 µM, first compound 0.1 µM
  viability, T/C: 0.46%
Second compound 10 µM, first compound 0.316 µM
  viability, T/C: 0.64%
Second compound 10 µM, first compound 1 µM
  viability, T/C: 0.65%

## O=C(c1cc(Cc2n[nH]c(=O)c3ccccc23)ccc1F)N1CCN(C(=O)C2CC2)CC1
Compound 0.0316 µM
  viability, T/C: 118% and 121%
Compound 0.1 µM
  viability, T/C: 91.3% and 115%
Compound 0.316 µM
  viability, T/C: 110% and 104%
Compound 1 µM
  viability, T/C: 112% and 120%
Compound 3.16 µM
  viability, T/C: 119% and 130%
Compound 10 µM
  viability, T/C: 101% and 138%
Curve of compound
  IC50: > 10000 nM
